Assay results reported in ChEMBL document CHEMBL1146734, “Estrogen receptor ligands. Part 3: The SAR of dihydrobenzoxathiin SERMs” (Bioorg Med Chem Lett, 2004).

Columns and labels:
Estrogen receptor [1] = molecular target: T1, Estrogen receptor (Homo sapiens, UniProt Q92731+P03372); test: […] inhibition of human ERalpha/ERbeta co-expressed in HEK 293 cells; 127/3316; type: functional; details: hek293
Estrogen receptor [2] = molecular target: T2, Estrogen receptor (Homo sapiens, UniProt P03372); test: Binding affinity towards human estrogen receptor alpha
T2 sequence (P03372 whole entry): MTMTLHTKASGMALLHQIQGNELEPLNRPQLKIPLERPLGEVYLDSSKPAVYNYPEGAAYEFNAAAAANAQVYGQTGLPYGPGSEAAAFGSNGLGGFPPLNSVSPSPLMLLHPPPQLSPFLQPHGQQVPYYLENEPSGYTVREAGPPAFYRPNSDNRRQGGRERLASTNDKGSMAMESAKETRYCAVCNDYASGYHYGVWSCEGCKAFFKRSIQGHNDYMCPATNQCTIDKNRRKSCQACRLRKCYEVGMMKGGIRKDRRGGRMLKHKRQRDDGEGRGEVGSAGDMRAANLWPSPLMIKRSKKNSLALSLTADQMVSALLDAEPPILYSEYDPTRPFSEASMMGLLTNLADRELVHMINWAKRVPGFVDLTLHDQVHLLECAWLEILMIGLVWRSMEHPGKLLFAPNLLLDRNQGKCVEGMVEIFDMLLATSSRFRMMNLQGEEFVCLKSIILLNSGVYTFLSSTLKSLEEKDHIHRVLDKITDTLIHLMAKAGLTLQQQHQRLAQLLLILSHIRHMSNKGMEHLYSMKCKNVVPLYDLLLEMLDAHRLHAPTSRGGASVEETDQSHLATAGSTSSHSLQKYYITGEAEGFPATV

Estrogen receptor beta = Estrogen receptor beta (Homo sapiens, UniProt Q92731); test: Binding affinity towards human estrogen receptor beta (ERbeta)
Sequence of Estrogen receptor beta (Q92731 whole entry): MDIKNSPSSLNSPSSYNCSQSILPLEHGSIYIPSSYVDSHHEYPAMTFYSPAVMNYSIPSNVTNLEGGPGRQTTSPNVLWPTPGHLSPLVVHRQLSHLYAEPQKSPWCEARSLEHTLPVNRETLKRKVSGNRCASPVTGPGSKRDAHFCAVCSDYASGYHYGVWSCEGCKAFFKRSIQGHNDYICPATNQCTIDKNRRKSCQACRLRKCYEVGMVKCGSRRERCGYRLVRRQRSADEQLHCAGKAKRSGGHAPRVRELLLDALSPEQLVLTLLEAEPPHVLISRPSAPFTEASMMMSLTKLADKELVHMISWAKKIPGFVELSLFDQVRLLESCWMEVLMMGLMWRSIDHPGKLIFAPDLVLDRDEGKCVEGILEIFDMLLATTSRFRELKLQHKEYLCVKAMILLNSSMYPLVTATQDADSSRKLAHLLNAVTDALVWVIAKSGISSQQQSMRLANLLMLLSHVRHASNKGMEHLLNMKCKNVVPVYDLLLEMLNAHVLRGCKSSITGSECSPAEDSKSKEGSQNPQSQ

Estrogen receptor [3] = molecular target: T1, Estrogen receptor; test: In vivo inhibition of human ERalpha/ERbeta co-expressed in HEK 293 cells; type: functional; details: hek293
Estrogen receptor [4] = molecular target: T1, Estrogen receptor; test: […] inhibition of human ERalpha/ERbeta co-expressed in HEK 293 cells; 21/840; type: functional; details: hek293
Estrogen receptor [5] = molecular target: T1, Estrogen receptor; test: […] inhibition of human ERalpha/ERbeta co-expressed in HEK 293 cells; 137/1375; type: functional; details: hek293
Estrogen receptor [6] = molecular target: T1, Estrogen receptor; test: In vitro inhibition of human ERalpha/ERbeta expressed in HEK 293 cells; 76/322; details: hek293

| Structure (SMILES) | IC50 (Estrogen receptor [2]) | IC50 (Estrogen receptor beta) | also measured |
| --- | --- | --- | --- |
| CC(C)[C@H]1Sc2cc(O)ccc2O[C@H]1c1ccc(OCCN2CCCCC2)cc1 | 0.007 µM | 0.105 µM | IC50 (Estrogen receptor [1]): 0.127 µM |
| Oc1ccc(C[C@H]2Sc3cc(O)ccc3O[C@H]2c2ccc(OCCN3CCCCC3)cc2)cc1 | 0.0027 µM | 0.308 µM | IC50 (Estrogen receptor [3]): 0.014 µM |
| Oc1ccc2c(c1)S[C@H](CC1CCCC1)[C@H](c1ccc(OCCN3CCCCC3)cc1)O2 | 0.003 µM | 0.034 µM |  |
| Oc1ccc2c(c1)S[C@H](c1ccco1)[C@H](c1ccc(OCCN3CCCCC3)cc1)O2 | 0.035 µM | 0.361 µM |  |
| Oc1ccc2c(c1)S[C@H](C1CCCCCC1)[C@H](c1ccc(OCCN3CCCCC3)cc1)O2 | 0.0075 µM | 0.028 µM | IC50 (Estrogen receptor [4]): 0.021 µM |
| CC(C)(C)[C@H]1Sc2cc(O)ccc2O[C@H]1c1ccc(OCCN2CCCCC2)cc1 | 0.011 µM | 0.043 µM | IC50 (Estrogen receptor [5]): 0.137 µM |
| Oc1ccc2c(c1)S[C@H](C1CCCC1)[C@H](c1ccc(OCCN3CCCCC3)cc1)O2 | 0.0025 µM | 0.031 µM |  |
| Oc1ccc2c(c1)S[C@H](c1cccnc1)[C@H](c1ccc(OCCN3CCCCC3)cc1)O2 | 0.542 µM | 8.25 µM |  |
| Oc1ccc2c(c1)S[C@H](c1ccncc1)[C@H](c1ccc(OCCN3CCCCC3)cc1)O2 | 0.49 µM | 8.2 µM |  |
| Oc1ccc2c(c1)S[C@H](c1cccs1)[C@H](c1ccc(OCCN3CCCCC3)cc1)O2 | 0.0088 µM | 0.162 µM |  |
| Oc1ccc2c(c1)S[C@H](C1CCCCC1)[C@H](c1ccc(OCCN3CCCCC3)cc1)O2 | 0.0026 µM | 0.016 µM |  |
| Oc1ccc2c(c1)S[C@H](Cc1ccccc1)[C@H](c1ccc(OCCN3CCCCC3)cc1)O2 | 0.0074 µM | 0.06 µM | IC50 (Estrogen receptor [3]): 0.061 µM |
| CC(C)C[C@H]1Sc2cc(O)ccc2O[C@H]1c1ccc(OCCN2CCCCC2)cc1 | 0.003 µM | 0.038 µM | IC50 (Estrogen receptor [6]): 0.076 µM |
| Oc1ccc2c(c1)S[C@H](CC1CCCCC1)[C@H](c1ccc(OCCN3CCCCC3)cc1)O2 | 0.0039 µM | 0.04 µM |  |
